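These data come from cells grown in 96-well plates and exposed to compound for 48 hours at five concentrations. GI50 marks 50% less growth. TGI is the concentration that stops growth completely.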
Assays:
Test in all cases: inhibition of tumour cell growth, NCI panel, 48 h
786-0 renal = tested on: 786-0 renal
A498 renal = tested on: A498 renal
A549 NSCLC = tested on: A549 NSCLC
ACHN renal = tested on: ACHN renal
BT-549 breast = tested on: BT-549 breast
CAKI-1 renal = tested on: CAKI-1 renal
CCRF-CEM leukemia = tested on: CCRF-CEM leukemia
COLO 205 colon = tested on: COLO 205 colon
DU-145 prostate = tested on: DU-145 prostate
EKVX NSCLC = tested on: EKVX NSCLC
HCC-2998 colon = tested on: HCC-2998 colon
HCT-116 colon = tested on: HCT-116 colon
HCT-15 colon = tested on: HCT-15 colon
HL-60(TB) leukemia = tested on: HL-60(TB) leukemia
HOP-62 NSCLC = tested on: HOP-62 NSCLC
HOP-92 NSCLC = tested on: HOP-92 NSCLC
HS 578T breast = tested on: HS 578T breast
HT29 colon = tested on: HT29 colon
IGROV1 ovarian = tested on: IGROV1 ovarian
K-562 leukemia = tested on: K-562 leukemia
KM12 colon = tested on: KM12 colon
LOX IMVI melanoma = tested on: LOX IMVI melanoma
M14 melanoma = tested on: M14 melanoma
MALME-3M melanoma = tested on: MALME-3M melanoma
MCF7 breast = tested on: MCF7 breast
MDA-MB-231 breast = tested on: MDA-MB-231 breast
MDA-MB-435 = tested on: MDA-MB-435
MOLT-4 leukemia = tested on: MOLT-4 leukemia
NCI-H226 lung = tested on: NCI-H226 lung
NCI-H23 lung = tested on: NCI-H23 lung
NCI-H460 lung = tested on: NCI-H460 lung
NCI-H522 lung = tested on: NCI-H522 lung
NCI/ADR-RES ovarian = tested on: NCI/ADR-RES ovarian
OVCAR-3 ovarian = tested on: OVCAR-3 ovarian
OVCAR-4 ovarian = tested on: OVCAR-4 ovarian
OVCAR-5 ovarian = tested on: OVCAR-5 ovarian
OVCAR-8 ovarian = tested on: OVCAR-8 ovarian
PC-3 prostate = tested on: PC-3 prostate
RPMI-8226 leukemia = tested on: RPMI-8226 leukemia
RXF 393 renal = tested on: RXF 393 renal
SF-268 CNS = tested on: SF-268 CNS
SF-295 CNS = tested on: SF-295 CNS
SF-539 CNS = tested on: SF-539 CNS
SK-MEL-2 melanoma = tested on: SK-MEL-2 melanoma
SK-MEL-28 melanoma = tested on: SK-MEL-28 melanoma
SK-MEL-5 melanoma = tested on: SK-MEL-5 melanoma
SK-OV-3 ovarian = tested on: SK-OV-3 ovarian
SN12C renal = tested on: SN12C renal
SNB-19 CNS = tested on: SNB-19 CNS
SNB-75 CNS = tested on: SNB-75 CNS
SR leukemia = tested on: SR leukemia
SW-620 colon = tested on: SW-620 colon
T-47D breast = tested on: T-47D breast
TK-10 renal = tested on: TK-10 renal
U251 CNS = tested on: U251 CNS
UACC-257 melanoma = tested on: UACC-257 melanoma
UO-31 renal = tested on: UO-31 renal

`CNC(=O)c1ccc(N2CCN(Cc3ccc4nc(C)c(=O)[nH]c4c3F)CC2)c(F)n1` was tested, and the GI50 (786-0 renal) was 47.4 µM, the TGI (786-0 renal) was over 100 µM and the GI50 (A498 renal) was over 100 µM. The TGI (A498 renal) was over 100 µM, the GI50 (A549 NSCLC) was over 100 µM and the TGI (A549 NSCLC) was over 100 µM. It also gave a GI50 (ACHN renal) of over 100 µM, a TGI (ACHN renal) of over 100 µM and a GI50 (BT-549 breast) of 89.6 µM. For the same molecule, the TGI (BT-549 breast) was over 100 µM, the GI50 (CAKI-1 renal) was 49.4 µM and the TGI (CAKI-1 renal) was over 100 µM. The GI50 (CCRF-CEM leukemia) was over 100 µM, the TGI (CCRF-CEM leukemia) was over 100 µM and the GI50 (COLO 205 colon) was over 100 µM. The TGI (COLO 205 colon) was over 100 µM, the GI50 (DU-145 prostate) was over 100 µM and the TGI (DU-145 prostate) was over 100 µM. The GI50 (EKVX NSCLC) was 81.2 µM, the TGI (EKVX NSCLC) was over 100 µM and the GI50 (HCC-2998 colon) was over 100 µM. The TGI (HCC-2998 colon) was over 100 µM, the GI50 (HCT-116 colon) was 91.4 µM and the TGI (HCT-116 colon) was over 100 µM. For the same molecule, the GI50 (HCT-15 colon) was over 100 µM, the TGI (HCT-15 colon) was over 100 µM and the GI50 (HL-60(TB) leukemia) was over 100 µM. For the same molecule, the TGI (HL-60(TB) leukemia) was over 100 µM, the GI50 (HOP-62 NSCLC) was 43.7 µM and the TGI (HOP-62 NSCLC) was over 100 µM. For the same molecule, the GI50 (HOP-92 NSCLC) was 21.3 µM, the TGI (HOP-92 NSCLC) was over 100 µM and the GI50 (HS 578T breast) was 25.3 µM. For the same molecule, the TGI (HS 578T breast) was over 100 µM, the GI50 (HT29 colon) was over 100 µM and the TGI (HT29 colon) was over 100 µM. It also gave a GI50 (IGROV1 ovarian) of over 100 µM, a TGI (IGROV1 ovarian) of over 100 µM and a GI50 (K-562 leukemia) of over 100 µM. It also gave a TGI (K-562 leukemia) of over 100 µM, a GI50 (KM12 colon) of over 100 µM and a TGI (KM12 colon) of over 100 µM. It also gave a GI50 (LOX IMVI melanoma) of over 100 µM, a TGI (LOX IMVI melanoma) of over 100 µM and a GI50 (M14 melanoma) of over 100 µM. The TGI (M14 melanoma) was over 100 µM, the GI50 (MALME-3M melanoma) was over 100 µM and the TGI (MALME-3M melanoma) was over 100 µM. It also gave a GI50 (MCF7 breast) of 65.9 µM, a TGI (MCF7 breast) of over 100 µM and a GI50 (MDA-MB-231 breast) of 39.5 µM. It also gave a TGI (MDA-MB-231 breast) of over 100 µM, a GI50 (MDA-MB-435) of over 100 µM and a TGI (MDA-MB-435) of over 100 µM. The GI50 (MOLT-4 leukemia) was over 100 µM, the TGI (MOLT-4 leukemia) was over 100 µM and the GI50 (NCI-H226 lung) was 44.9 µM. It also gave a TGI (NCI-H226 lung) of over 100 µM, a GI50 (NCI-H23 lung) of 70.6 µM and a TGI (NCI-H23 lung) of over 100 µM. For the same molecule, the GI50 (NCI-H460 lung) was 73.8 µM, the TGI (NCI-H460 lung) was over 100 µM and the GI50 (NCI-H522 lung) was 21.2 µM. For the same molecule, the TGI (NCI-H522 lung) was over 100 µM, the GI50 (NCI/ADR-RES ovarian) was 78.8 µM and the TGI (NCI/ADR-RES ovarian) was over 100 µM. For the same molecule, the GI50 (OVCAR-3 ovarian) was over 100 µM, the TGI (OVCAR-3 ovarian) was over 100 µM and the GI50 (OVCAR-4 ovarian) was over 100 µM. The TGI (OVCAR-4 ovarian) was over 100 µM, the GI50 (OVCAR-5 ovarian) was over 100 µM and the TGI (OVCAR-5 ovarian) was over 100 µM. The GI50 (OVCAR-8 ovarian) was 58.7 µM, the TGI (OVCAR-8 ovarian) was over 100 µM and the GI50 (PC-3 prostate) was over 100 µM. For the same molecule, the TGI (PC-3 prostate) was over 100 µM, the GI50 (RPMI-8226 leukemia) was over 100 µM and the TGI (RPMI-8226 leukemia) was over 100 µM. It also gave a GI50 (RXF 393 renal) of 13.1 µM, a TGI (RXF 393 renal) of 62.5 µM and a GI50 (SF-268 CNS) of 43.3 µM. The TGI (SF-268 CNS) was over 100 µM, the GI50 (SF-295 CNS) was 48.5 µM and the TGI (SF-295 CNS) was over 100 µM. The GI50 (SF-539 CNS) was 55.4 µM, the TGI (SF-539 CNS) was over 100 µM and the GI50 (SK-MEL-2 melanoma) was 76.2 µM. The TGI (SK-MEL-2 melanoma) was over 100 µM, the GI50 (SK-MEL-28 melanoma) was over 100 µM and the TGI (SK-MEL-28 melanoma) was over 100 µM. The GI50 (SK-MEL-5 melanoma) was 30.5 µM, the TGI (SK-MEL-5 melanoma) was over 100 µM and the GI50 (SK-OV-3 ovarian) was over 100 µM. For the same molecule, the TGI (SK-OV-3 ovarian) was over 100 µM, the GI50 (SN12C renal) was 57.7 µM and the TGI (SN12C renal) was over 100 µM. It also gave a GI50 (SNB-19 CNS) of 34.2 µM, a TGI (SNB-19 CNS) of over 100 µM and a GI50 (SNB-75 CNS) of 16.4 µM. For the same molecule, the TGI (SNB-75 CNS) was 63.8 µM, the GI50 (SR leukemia) was 63.1 µM and the TGI (SR leukemia) was over 100 µM. It also gave a GI50 (SW-620 colon) of over 100 µM, a TGI (SW-620 colon) of over 100 µM and a GI50 (T-47D breast) of 53.5 µM. For the same molecule, the TGI (T-47D breast) was over 100 µM, the GI50 (TK-10 renal) was 72.3 µM and the TGI (TK-10 renal) was over 100 µM. The GI50 (U251 CNS) was 36.5 µM, the TGI (U251 CNS) was over 100 µM and the GI50 (UACC-257 melanoma) was over 100 µM. The TGI (UACC-257 melanoma) was over 100 µM, the GI50 (UO-31 renal) was over 100 µM and the TGI (UO-31 renal) was over 100 µM.

— PubChem BioAssay (NCI)
